Measurements as given in ChEMBL document CHEMBL1201862, “PubChem BioAssay data set” (2004).
Calls of active or inactive are those of the source.

How the values were obtained:
[1] = target: Heat shock protein HSP 90-alpha (Homo sapiens, UniProt P07900); assay type: functional, organism-based
Orexin receptor type 2 = Orexin receptor type 2 (Homo sapiens, UniProt O43614); experiment: Counterscreen assay for antagonists of the orexin 1 receptor (OX1R; HCRTR1): Homogeneous Time Resolved Fluorescence (HTRF)-based cell-based dose response assay for antagonists of the orexin 2 receptor (OX2R; HCRTR2), run by assay provider.; assay type: functional
[2] = loss of viability in HepG2 cells – cell-based, CellTiter-Glo, cherry-picked, cytotoxicity control for Shn3 inhibitor project, dose response (AID 624134); assay type: functional
[3] = non-specific 3'UTR reporter inhibition in Clone20-Shn3RL – cell-based, Renilla luciferase, cherry-picked, counter-screen for Shn3 inhibitor project, dose response (AID 624133); assay type: functional
[4] = fluconazole-exposed Candida albicans growth modulators – fluorescence, retest, confirmation (AID 2467); assay type: functional, cell-based
[5] = target: T1, Ubiquitin-conjugating enzyme E2 N (Homo sapiens, UniProt P61088); assay type: functional;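 further: Dose-response confirmation in a TR-FRET assay detecting UBC13-driven polyubiquitin chain formation, inhibition measured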
T1 sequence (P61088 whole entry): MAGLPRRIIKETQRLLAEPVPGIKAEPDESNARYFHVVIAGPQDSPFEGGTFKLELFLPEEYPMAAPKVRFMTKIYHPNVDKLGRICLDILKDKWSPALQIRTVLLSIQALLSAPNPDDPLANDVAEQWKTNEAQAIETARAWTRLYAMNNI

[6] = target: Calcium/calmodulin-dependent protein kinase type II subunit alpha (Homo sapiens, UniProt Q9UQM7); experiment: Navigating the Kinome. Panel member name: CAMK2A; assay type: functional
Chain of Calcium/calmodulin-dependent protein kinase type II subunit alpha (Q9UQM7 whole entry): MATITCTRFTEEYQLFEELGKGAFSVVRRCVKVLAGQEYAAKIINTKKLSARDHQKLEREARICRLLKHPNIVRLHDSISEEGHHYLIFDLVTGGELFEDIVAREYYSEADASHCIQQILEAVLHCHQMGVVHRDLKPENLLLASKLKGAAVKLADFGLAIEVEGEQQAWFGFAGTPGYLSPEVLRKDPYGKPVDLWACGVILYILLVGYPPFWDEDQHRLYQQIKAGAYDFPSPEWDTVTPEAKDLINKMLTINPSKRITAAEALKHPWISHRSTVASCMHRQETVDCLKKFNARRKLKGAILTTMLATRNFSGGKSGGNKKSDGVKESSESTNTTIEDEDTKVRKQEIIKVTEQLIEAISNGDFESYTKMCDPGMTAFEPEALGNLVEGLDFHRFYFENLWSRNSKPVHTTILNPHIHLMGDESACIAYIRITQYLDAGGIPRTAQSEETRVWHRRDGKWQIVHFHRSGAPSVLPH

[7] = target: Macrophage-stimulating protein receptor (Homo sapiens, UniProt Q04912); experiment: Navigating the Kinome. Panel member name: MST1R; assay type: functional
[8] = target: Death-associated protein kinase 3 (Homo sapiens, UniProt O43293); assay type: functional;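 further: measured as one member of a kinome-wide profiling panel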
[9] = target: Serine/threonine-protein kinase TAO1 (Homo sapiens, UniProt Q7L7X3); assay type: functional
[10] = target: Serine/threonine-protein kinase TBK1 (Homo sapiens, UniProt Q9UHD2); experiment: Navigating the Kinome. Panel member name: TBK1; assay type: functional
[11] = target: Vascular endothelial growth factor receptor 1 (Homo sapiens, UniProt P17948); assay type: functional;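 further: measured within a kinome-wide profiling panel, FLT1 as the panel member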
[12] = target: Hepatocyte growth factor receptor (Homo sapiens, UniProt P08581); assay type: functional;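 further: kinase panel profiling across the kinome, with MET as the panel member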
[13] = target: Fibroblast growth factor receptor 1 (Homo sapiens, UniProt P11362); assay type: functional
[14] = target: Mitogen-activated protein kinase 8 (Homo sapiens, UniProt P45983); assay type: functional;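 further: value comes from one member of a kinome-wide kinase profiling panel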
[15] = target: Dual specificity mitogen-activated protein kinase kinase 1 (Homo sapiens, UniProt Q02750); experiment: Navigating the Kinome. Panel member name: MAP2K1; assay type: functional
Activated CDC42 kinase 1 = Activated CDC42 kinase 1 (Homo sapiens, UniProt Q07912); experiment: Navigating the Kinome. Panel member name: ACK1; assay type: functional
Chain of Activated CDC42 kinase 1 (Q07912 whole entry): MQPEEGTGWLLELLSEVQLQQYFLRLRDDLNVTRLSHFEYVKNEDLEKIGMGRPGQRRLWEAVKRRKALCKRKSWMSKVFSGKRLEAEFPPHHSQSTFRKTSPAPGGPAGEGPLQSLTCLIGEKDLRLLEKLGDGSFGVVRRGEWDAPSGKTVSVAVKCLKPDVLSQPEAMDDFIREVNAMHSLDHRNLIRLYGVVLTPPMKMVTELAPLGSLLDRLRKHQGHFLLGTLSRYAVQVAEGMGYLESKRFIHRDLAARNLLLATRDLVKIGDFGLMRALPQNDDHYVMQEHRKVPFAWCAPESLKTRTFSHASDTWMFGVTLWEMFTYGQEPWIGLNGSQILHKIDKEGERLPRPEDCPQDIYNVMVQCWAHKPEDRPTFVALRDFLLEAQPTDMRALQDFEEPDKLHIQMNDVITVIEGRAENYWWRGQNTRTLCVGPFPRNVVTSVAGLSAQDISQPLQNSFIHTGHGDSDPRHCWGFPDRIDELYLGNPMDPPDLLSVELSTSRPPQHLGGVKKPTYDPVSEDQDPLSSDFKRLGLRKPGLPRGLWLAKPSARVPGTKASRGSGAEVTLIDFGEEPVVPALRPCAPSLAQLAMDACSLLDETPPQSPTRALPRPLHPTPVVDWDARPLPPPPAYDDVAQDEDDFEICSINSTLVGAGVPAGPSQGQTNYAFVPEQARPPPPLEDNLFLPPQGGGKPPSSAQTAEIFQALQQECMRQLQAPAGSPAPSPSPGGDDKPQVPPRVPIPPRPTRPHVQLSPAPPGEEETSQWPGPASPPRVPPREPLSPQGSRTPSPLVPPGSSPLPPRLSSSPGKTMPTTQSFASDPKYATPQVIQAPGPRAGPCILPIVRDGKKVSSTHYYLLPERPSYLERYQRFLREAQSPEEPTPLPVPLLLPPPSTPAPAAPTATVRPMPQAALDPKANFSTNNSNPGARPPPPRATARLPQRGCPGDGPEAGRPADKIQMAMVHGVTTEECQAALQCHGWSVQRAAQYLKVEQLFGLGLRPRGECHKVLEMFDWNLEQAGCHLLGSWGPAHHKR

[16] = target: Mitogen-activated protein kinase 9 (Homo sapiens, UniProt P45984); assay type: functional;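 further: value from a kinome panel profiling assay, MAPK9 panel entry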
[17] = target: Tyrosine-protein kinase Lck (Homo sapiens, UniProt P06239); assay type: functional;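 further: lck was assayed as one member of a kinase panel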
[18] = target: Leukocyte tyrosine kinase receptor (Homo sapiens, UniProt P29376); experiment: Navigating the Kinome. Panel member name: LTK; assay type: functional
[19] = target: ALK tyrosine kinase receptor (Homo sapiens, UniProt Q9UM73); assay type: functional;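 further: ALK tested as one member of a kinase panel screen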
[20] = target: High affinity nerve growth factor receptor (Homo sapiens, UniProt P04629); assay type: functional;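 further: NTRK1 tested as one member of a kinome-wide profiling panel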
[21] = target: Insulin-like growth factor 1 receptor (Homo sapiens, UniProt P08069); experiment: Navigating the Kinome. Panel member name: IGF1R; assay type: functional
[22] = target: 5'-AMP-activated protein kinase catalytic subunit alpha-1 (Homo sapiens, UniProt Q13131); assay type: functional
Chain of 5'-AMP-activated protein kinase catalytic subunit alpha-1 (Q13131 whole entry): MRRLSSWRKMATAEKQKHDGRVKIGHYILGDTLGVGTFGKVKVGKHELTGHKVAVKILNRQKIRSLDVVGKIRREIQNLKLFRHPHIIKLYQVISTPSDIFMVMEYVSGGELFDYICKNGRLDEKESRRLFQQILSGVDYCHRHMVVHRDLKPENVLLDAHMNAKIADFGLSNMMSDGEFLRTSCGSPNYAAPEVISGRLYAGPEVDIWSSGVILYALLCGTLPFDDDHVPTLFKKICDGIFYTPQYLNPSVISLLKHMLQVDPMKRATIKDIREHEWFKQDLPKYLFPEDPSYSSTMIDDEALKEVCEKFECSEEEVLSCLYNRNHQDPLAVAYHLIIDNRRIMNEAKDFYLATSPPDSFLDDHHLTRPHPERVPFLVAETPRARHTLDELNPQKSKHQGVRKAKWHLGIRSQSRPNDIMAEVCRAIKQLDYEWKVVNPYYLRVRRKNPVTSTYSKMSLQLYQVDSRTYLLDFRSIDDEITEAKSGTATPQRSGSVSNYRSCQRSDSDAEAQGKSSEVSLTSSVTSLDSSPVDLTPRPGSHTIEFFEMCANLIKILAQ

[23] = target: Tyrosine-protein kinase JAK3 (Homo sapiens, UniProt P52333); assay type: functional
[24] = target: BDNF/NT-3 growth factors receptor (Homo sapiens, UniProt Q16620); assay type: functional;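 further: NTRK2 measured as one member of a broad kinome-wide kinase profiling panel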
[25] = target: T2, cAMP-dependent protein kinase catalytic subunit PRKX (Homo sapiens, UniProt P51817); assay type: functional
T2 sequence (P51817 whole entry): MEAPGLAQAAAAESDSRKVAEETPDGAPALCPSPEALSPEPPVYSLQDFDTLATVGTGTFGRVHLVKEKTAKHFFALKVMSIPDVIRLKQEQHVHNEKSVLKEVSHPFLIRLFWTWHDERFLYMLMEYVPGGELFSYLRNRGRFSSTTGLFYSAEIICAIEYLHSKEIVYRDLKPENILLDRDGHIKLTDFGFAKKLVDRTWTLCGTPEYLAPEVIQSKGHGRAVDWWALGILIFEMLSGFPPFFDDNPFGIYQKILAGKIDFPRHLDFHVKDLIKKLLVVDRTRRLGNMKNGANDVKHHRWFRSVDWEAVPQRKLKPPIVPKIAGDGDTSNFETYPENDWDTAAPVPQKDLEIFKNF

[26] = target: Macrophage colony-stimulating factor 1 receptor (Homo sapiens, UniProt P07333); assay type: functional;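 further: value comes from the Navigating the Kinome screening panel, CSF1R member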
[27] = target: Cyclin-dependent kinase 5 (Homo sapiens, UniProt Q00535); assay type: functional;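 further: CDK5 measured as one member of a kinase profiling panel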
Chain of Cyclin-dependent kinase 5 (Q00535 whole entry, the tested form may be a part): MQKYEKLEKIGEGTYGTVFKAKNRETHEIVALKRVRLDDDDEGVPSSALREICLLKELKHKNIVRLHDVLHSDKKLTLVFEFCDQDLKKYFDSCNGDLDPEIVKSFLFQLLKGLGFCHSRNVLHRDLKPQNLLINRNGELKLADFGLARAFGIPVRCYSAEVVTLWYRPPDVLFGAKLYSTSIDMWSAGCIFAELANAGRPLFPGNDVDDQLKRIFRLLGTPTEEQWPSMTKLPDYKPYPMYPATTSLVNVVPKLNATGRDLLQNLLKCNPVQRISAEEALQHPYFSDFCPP

LIM domain kinase 1 = LIM domain kinase 1 (Homo sapiens, UniProt P53667); experiment: Navigating the Kinome. Panel member name: LIMK1; assay type: functional
Chain of LIM domain kinase 1 (P53667 whole entry, the tested form may be a part): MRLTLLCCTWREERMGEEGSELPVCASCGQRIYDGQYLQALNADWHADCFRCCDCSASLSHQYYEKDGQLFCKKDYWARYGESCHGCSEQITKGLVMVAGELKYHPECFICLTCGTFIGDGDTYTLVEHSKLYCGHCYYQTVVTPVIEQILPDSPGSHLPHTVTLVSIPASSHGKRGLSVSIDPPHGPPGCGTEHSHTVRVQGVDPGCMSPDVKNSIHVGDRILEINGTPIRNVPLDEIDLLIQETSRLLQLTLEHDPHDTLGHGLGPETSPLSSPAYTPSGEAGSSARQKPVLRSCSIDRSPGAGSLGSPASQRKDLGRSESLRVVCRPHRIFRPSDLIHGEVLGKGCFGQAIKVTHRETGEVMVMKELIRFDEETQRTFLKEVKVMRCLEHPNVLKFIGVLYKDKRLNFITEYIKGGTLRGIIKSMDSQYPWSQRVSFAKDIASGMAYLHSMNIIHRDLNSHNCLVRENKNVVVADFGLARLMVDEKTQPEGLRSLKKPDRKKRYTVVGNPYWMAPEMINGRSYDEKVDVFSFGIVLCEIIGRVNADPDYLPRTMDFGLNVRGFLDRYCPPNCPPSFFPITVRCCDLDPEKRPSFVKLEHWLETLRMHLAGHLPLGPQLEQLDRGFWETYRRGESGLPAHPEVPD

[28] = target: Dual specificity mitogen-activated protein kinase kinase 2 (Homo sapiens, UniProt P36507); experiment: Navigating the Kinome. Panel member name: MAP2K2; assay type: functional
Chain of Dual specificity mitogen-activated protein kinase kinase 2 (P36507 whole entry): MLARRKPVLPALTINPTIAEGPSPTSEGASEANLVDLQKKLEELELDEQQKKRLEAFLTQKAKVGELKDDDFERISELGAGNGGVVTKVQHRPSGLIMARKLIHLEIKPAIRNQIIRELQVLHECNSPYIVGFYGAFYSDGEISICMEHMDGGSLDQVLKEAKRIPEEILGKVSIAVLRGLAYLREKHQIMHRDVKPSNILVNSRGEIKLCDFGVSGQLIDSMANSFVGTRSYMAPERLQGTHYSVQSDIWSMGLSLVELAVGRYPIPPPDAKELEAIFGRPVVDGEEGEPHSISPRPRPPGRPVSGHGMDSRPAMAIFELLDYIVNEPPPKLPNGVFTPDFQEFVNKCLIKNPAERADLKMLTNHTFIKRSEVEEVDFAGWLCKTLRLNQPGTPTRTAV

[29] = target: Platelet-derived growth factor receptor alpha (Homo sapiens, UniProt P16234); experiment: Navigating the Kinome. Panel member name: PDGFRA; assay type: functional
[30] = target: cAMP-dependent protein kinase catalytic subunit alpha (Homo sapiens, UniProt P17612); assay type: functional
[31] = target: Glycogen synthase kinase-3 beta (Homo sapiens, UniProt P49841); assay type: functional;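 further: value comes from a broad kinome profiling panel, with GSK3B as the panel member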
[32] = target: Mitogen-activated protein kinase kinase kinase kinase 2 (Homo sapiens, UniProt Q12851); assay type: functional;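 further: measured as one member of a kinome-wide kinase panel, with MAP4K2 as the panel entry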
[33] = target: Dual specificity protein kinase CLK2 (Homo sapiens, UniProt P49760); assay type: functional
Chain of Dual specificity protein kinase CLK2 (P49760 whole entry): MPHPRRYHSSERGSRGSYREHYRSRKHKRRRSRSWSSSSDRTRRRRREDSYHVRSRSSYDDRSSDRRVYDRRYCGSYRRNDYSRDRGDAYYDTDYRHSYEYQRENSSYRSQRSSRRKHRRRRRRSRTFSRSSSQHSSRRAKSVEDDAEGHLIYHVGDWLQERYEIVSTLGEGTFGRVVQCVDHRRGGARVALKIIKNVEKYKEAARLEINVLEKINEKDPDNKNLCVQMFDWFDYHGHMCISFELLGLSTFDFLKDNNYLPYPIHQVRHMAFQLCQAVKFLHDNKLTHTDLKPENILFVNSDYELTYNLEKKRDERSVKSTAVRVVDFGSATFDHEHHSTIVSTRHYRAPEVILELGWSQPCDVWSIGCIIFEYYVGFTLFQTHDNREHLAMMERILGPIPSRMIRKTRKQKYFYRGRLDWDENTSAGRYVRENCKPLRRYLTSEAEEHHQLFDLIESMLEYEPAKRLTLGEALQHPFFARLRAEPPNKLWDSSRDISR

[34] = target: Leucine-rich repeat serine/threonine-protein kinase 2 (Homo sapiens, UniProt Q5S007); assay type: functional;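 further: value from a broad kinome-wide panel profiling study in which LRRK2 was one of the kinases tested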
[35] = target: Receptor-type tyrosine-protein kinase FLT3 (Homo sapiens, UniProt P36888); assay type: functional;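 further: FLT3 was tested as one member of a kinome-wide kinase panel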
Chain of Receptor-type tyrosine-protein kinase FLT3 (P36888 whole entry, the tested form may be a part): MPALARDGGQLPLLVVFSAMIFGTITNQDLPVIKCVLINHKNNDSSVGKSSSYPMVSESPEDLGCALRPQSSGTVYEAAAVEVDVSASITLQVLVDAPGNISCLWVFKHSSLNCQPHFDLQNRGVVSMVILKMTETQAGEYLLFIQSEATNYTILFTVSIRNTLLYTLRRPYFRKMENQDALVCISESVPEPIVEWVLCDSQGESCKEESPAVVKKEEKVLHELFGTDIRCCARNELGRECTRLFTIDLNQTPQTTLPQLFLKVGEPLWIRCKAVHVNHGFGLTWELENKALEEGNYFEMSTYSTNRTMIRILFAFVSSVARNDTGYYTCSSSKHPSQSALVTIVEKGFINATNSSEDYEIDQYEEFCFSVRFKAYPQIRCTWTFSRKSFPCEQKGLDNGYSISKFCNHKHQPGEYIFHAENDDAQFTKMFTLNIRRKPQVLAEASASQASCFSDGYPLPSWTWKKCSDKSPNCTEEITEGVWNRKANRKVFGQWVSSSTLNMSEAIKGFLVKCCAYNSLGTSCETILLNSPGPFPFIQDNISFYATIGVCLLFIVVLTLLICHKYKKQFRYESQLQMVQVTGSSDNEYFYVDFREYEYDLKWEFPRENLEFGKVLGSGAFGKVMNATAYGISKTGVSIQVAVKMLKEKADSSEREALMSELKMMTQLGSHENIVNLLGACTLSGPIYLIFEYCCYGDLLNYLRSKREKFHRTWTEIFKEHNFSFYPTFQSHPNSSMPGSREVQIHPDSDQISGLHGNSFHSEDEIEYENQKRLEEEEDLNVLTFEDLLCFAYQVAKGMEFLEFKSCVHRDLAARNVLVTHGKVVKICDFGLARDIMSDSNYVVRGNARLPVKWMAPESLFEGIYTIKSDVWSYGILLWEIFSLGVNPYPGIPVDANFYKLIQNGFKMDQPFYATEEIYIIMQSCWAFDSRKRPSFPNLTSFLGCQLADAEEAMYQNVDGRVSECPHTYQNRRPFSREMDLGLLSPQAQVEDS

[36] = blockers of HIV-1 ZM109 envelope-driven cell-cell fusion – HeLa effector, CEM target cells, luciferase, cherry-pick, dose response (AID 652058); assay type: functional, cell-based;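 further: luciferase signal from HIV-1 Env mediated cell-cell fusion of effector and target cells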

Compound	AC50 [1]	AC50 [2]	AC50 [3]	EC50 [4]	Ki [6]	Ki [7]	Ki [8]	Ki [9]	Ki [10]	Ki [11]	Ki [12]	Ki [13]	Ki [14]	Ki [15]	Ki (Activated CDC42 kinase 1)	Ki [16]	Ki [17]	Ki [18]	Ki [19]	Ki [20]	other results
Cc1ccc(C(=O)OCn2ncc(Cl)c(Cl)c2=O)cc1	4.28 µM (active)	33.2 µM (active)	3.15 µM (active)	> 38 µM (not active)																	IC50 (Orexin receptor type 2): > 50 µM (inactive)
O=C(O)CC(C(=O)O)N1C(=O)/C(=C/C=C/c2ccco2)SC1=S (stereo not given)																					IC50 [5]: > 20 µM (inactive)
O=C(Nc1cccc(C2Nc3ccc4ccccc4c3C3C=CCC32)c1)c1ccc(F)cc1 (stereo not given)					> 3.98 µM (inactive)	> 3.98 µM (inactive)	> 5.01 µM (inactive)	> 6.31 µM (inactive)	3.16 µM (active)	> 3.98 µM (inactive)	0.316 µM (active)	0.794 µM (active)	3.16 µM (active)	1 µM (active)	> 3.98 µM (inactive)	> 3.98 µM (inactive)	> 6.31 µM (inactive)	> 2.51 µM (inactive)	3.16 µM (active)	0.794 µM (active)	Ki [21]: > 2.51 µM (inactive); Ki [22]: 3.16 µM (active); Ki [23]: > 5.01 µM (inactive); Ki [24]: > 3.98 µM (inactive); Ki [25]: > 3.16 µM (inactive); Ki [26]: > 2.51 µM (inactive); Ki [27]: > 3.16 µM (inactive); Ki (LIM domain kinase 1): 0.2 µM (active); Ki [28]: 0.398 µM (active); Ki [29]: > 2.51 µM (inactive); Ki [30]: 1.26 µM (active); Ki [31]: 0.398 µM (active); Ki [32]: 1.26 µM (active); Ki [33]: > 3.98 µM (inactive); Ki [34]: > 2.51 µM (inactive); Ki [35]: > 3.16 µM (inactive)
Cc1ccc(-c2cc(-c3cc(Br)ccc3O)[nH]c(=O)c2C#N)s1					1.58 µM (active)	0.794 µM (active)	> 5.01 µM (inactive)	> 6.31 µM (inactive)	> 3.16 µM (inactive)	> 3.98 µM (inactive)	> 2.51 µM (inactive)	1 µM (active)	0.794 µM (active)	> 3.16 µM (inactive)	2.51 µM (active)	> 3.98 µM (inactive)	> 6.31 µM (inactive)	> 2.51 µM (inactive)	2 µM (active)	0.631 µM (active)	Ki [21]: 0.794 µM (active); Ki [22]: 0.794 µM (active); Ki [23]: > 5.01 µM (inactive); Ki [24]: 3.16 µM (active); Ki [25]: > 3.16 µM (inactive); Ki [26]: 0.398 µM (active); Ki [27]: > 3.16 µM (inactive); Ki (LIM domain kinase 1): > 3.16 µM (inactive); Ki [28]: 1.58 µM (active); Ki [29]: > 2.51 µM (inactive); Ki [30]: 0.251 µM (active); Ki [31]: 0.316 µM (active); Ki [32]: > 2.51 µM (inactive); Ki [33]: > 3.98 µM (inactive); Ki [34]: > 2.51 µM (inactive); Ki [35]: 0.631 µM (active)
CCCC(=O)NC(c1cccs1)c1cc(Cl)c2cccnc2c1O (stereo not given)	1.47 µM (active)	3.76 µM (active)	4.36 µM (active)	0.707 µM (active)																	AC50 [36]: 15 µM (active)
